Measurements as given in patent US8314143B2, “Synthetic flavonoids and pharmaceutical compositions and therapeutic methods of treatment of HIV infection and other pathologies” (Florida A&M University, priority 2006, dated 2012).
Several values for one entry are separate records, joined by “and”; a condition that tells them apart may be missing. Equal values may be shown once. Entries after “also recorded” stand apart in the source; their conditions may differ.

Tests used:
Assay type in all cases: cell-based
[1] = system: MCF-7 cells; assay: Cytoxicity on MCF-7 cells (drug inhibition, cell count); set-up: Drug Inhibition on MCF-7 Cells / MCF-7 Mean (drug inhibition) / Drug inhibition on MCF-7 Cells Mean: unit not given here; settings: MCF-7 cells; for Drug Inhibition on MCF-7 Cells: Table 8 summary; for % Inhibition Mean / Cells (×10^4) Mean / % Inhibition / Cells (×10^4): Exp. Nov. 14 to Nov. 18, 2005; for % Inhibition / Cells (×10^4): single replicates
Text: (§1) The purified and identified analogs were subjected to in vitro biological testing. […] These three congeners were further evaluated in H9 and PC3 cells. AZT was employed as a positive control in all of these experiments.

[2] = system: H-9 cells; assay: Cytoxicity on H-9 cells (drug inhibition, cell count); settings: for H-9 Mean (drug inhibition): Table 4 summary; for % Inhibition Mean / Cells (×10^4) Mean / % Inhibition / Cells (×10^4): Exp. Dec. 05 to Dec. 09, 2005; for % Inhibition / Cells (×10^4): single replicates
Text: as §1

[3] = system: PC-3 cells; assay: Cytoxicity on PC-3 cells (drug inhibition, cell count); settings: for Drug Inhibition on PC-3 cells: Table 7; for % Inhibition Mean / Cells (×10^4) Mean / % Inhibition / Cells (×10^4): Exp. Nov. 11 to Nov. 17, 2005; for % Inhibition / Cells (×10^4): single replicates
Text: The purified and identified analogs were subjected to in vitro biological testing.

COc1ccc(C=CC(=O)c2cc(Br)cc(Br)c2O)cc1OC [CHBr 2M]
response to MCF-7 cells in the different drug concentrations [1]: good activities | Drug Inhibition on MCF-7 Cells ([1]; 1 μg/ml): 15.13 | % Inhibition Mean ([1]; 1 μg/ml): 15.13% | Cells (×10^4) Mean ([1]; 1 μg/ml): 49.08 ×10^4 | % Inhibition ([1]; 1 μg/ml): 15.71% and 10.95% and 18.73% | Cells (×10^4) ([1]; 1 μg/ml): 48.6 ×10^4 and 51.5 ×10^4 and 47.0 ×10^4 | Drug Inhibition on MCF-7 Cells ([1]; 5 μg/ml): 54.61 | % Inhibition Mean ([1]; 5 μg/ml): 54.61% | Cells (×10^4) Mean ([1]; 5 μg/ml): 26.25 ×10^4 | % Inhibition ([1]; 5 μg/ml): 53.31% and 56.34% and 54.18% | Cells (×10^4) ([1]; 5 μg/ml): 27.0 ×10^4 and 25.3 ×10^4 and 26.5 ×10^4 | Drug Inhibition on MCF-7 Cells ([1]; 10 μg/ml): 86.31 | % Inhibition Mean ([1]; 10 μg/ml): 86.31% | Cells (×10^4) Mean ([1]; 10 μg/ml): 7.92 ×10^4 | % Inhibition ([1]; 10 μg/ml): 87.46% and 84.44% and 87.03% | Cells (×10^4) ([1]; 10 μg/ml): 7.3 ×10^4 and 9.0 ×10^4 and 7.5 ×10^4 | Drug Inhibition on MCF-7 Cells ([1]; 50 μg/ml): 98.709 | % Inhibition Mean ([1]; 50 μg/ml): 98.70% | Cells (×10^4) Mean ([1]; 50 μg/ml): 0.75 ×10^4 | % Inhibition ([1]; 50 μg/ml): 98.70% and 98.27% and 99.14% | Cells (×10^4) ([1]; 50 μg/ml): 0.8 ×10^4 and 1.0 ×10^4 and 0.5 ×10^4 | inhibitory activity compared to AZT ([1]; same conditions as AZT): much superior inhibitory activities; also recorded: as good or somewhat better | H-9 Mean (drug inhibition) ([2]; 1 μg/ml): 5.64 | % Inhibition Mean ([2]; 1 μg/ml): 5.64% | Cells (×10^4) Mean ([2]; 1 μg/ml): 47.42 ×10^4 | % Inhibition ([2]; 1 μg/ml): 9.45% and 1.49% and 5.97% | Cells (×10^4) ([2]; 1 μg/ml): 45.5 ×10^4 and 49.5 ×10^4 and 47.3 ×10^4 | H-9 Mean (drug inhibition) ([2]; 5 μg/ml): 49.59 | % Inhibition Mean ([2]; 5 μg/ml): 49.59% | Cells (×10^4) Mean ([2]; 5 μg/ml): 25.33 ×10^4 | % Inhibition ([2]; 5 μg/ml): 49.25% and 50.76% and 48.76% | Cells (×10^4) ([2]; 5 μg/ml): 25.5 ×10^4 and 24.8 ×10^4 and 25.8 ×10^4 | H-9 Mean (drug inhibition) ([2]; 10 μg/ml): 65.01 | % Inhibition Mean ([2]; 10 μg/ml): 65.01% | Cells (×10^4) Mean ([2]; 10 μg/ml): 17.58 ×10^4 | % Inhibition ([2]; 10 μg/ml): 63.68% and 67.66% and 63.88% | Cells (×10^4) ([2]; 10 μg/ml): 18.3 ×10^4 (2×) and 16.3 ×10^4 | H-9 Mean (drug inhibition) ([2]; 50 μg/ml): 76.95 | % Inhibition Mean ([2]; 50 μg/ml): 76.95% | Cells (×10^4) Mean ([2]; 50 μg/ml): 11.58 ×10^4 | % Inhibition ([2]; 50 μg/ml): 76.62% and 77.11% | Cells (×10^4) ([2]; 50 μg/ml): 11.8 ×10^4 and 11.5 ×10^4 (2×) | inhibitory activity compared to AZT ([2]; same conditions as AZT): much superior inhibitory activities; also recorded: as good or somewhat better | Drug Inhibition on PC-3 cells ([3]; 1 μg/ml): 47.1 | % Inhibition Mean ([3]; 1 μg/ml): 27.64% | Cells (×10^4) Mean ([3]; 1 μg/ml): 70.92 ×10^4 | % Inhibition ([3]; 1 μg/ml): 25.26% and 26.53% and 31.12% | Cells (×10^4) ([3]; 1 μg/ml): 73.3 ×10^4 and 72.0 ×10^4 and 67.5 ×10^4 | Drug Inhibition on PC-3 cells ([3]; 5 μg/ml): 65.88 | % Inhibition Mean ([3]; 5 μg/ml): 27.72% | Cells (×10^4) Mean ([3]; 5 μg/ml): 70.83 ×10^4 | Cells (×10^4) ([3]; 5 μg/ml): 75.5 ×10^4 and 68.0 ×10^4 and 69.0 ×10^4 | Drug Inhibition on PC-3 cells ([3]; 10 μg/ml): 78.04 | % Inhibition Mean ([3]; 10 μg/ml): 26.28% | Cells (×10^4) Mean ([3]; 10 μg/ml): 72.25 ×10^4 | Drug Inhibition on PC-3 cells ([3]; 50 μg/ml): 89.50 | % Inhibition Mean ([3]; 50 μg/ml): 42.86% | Cells (×10^4) Mean ([3]; 50 μg/ml): 56.00 ×10^4 | % Inhibition ([3]; 50 μg/ml): 41.33% and 45.92% | Cells (×10^4) ([3]; 50 μg/ml): 57.5 ×10^4 (2×) and 53.0 ×10^4 | inhibitory activity compared to AZT ([3]; same conditions as AZT): much superior inhibitory activities; also recorded: as good or somewhat better
